From the supplement of paper PMC11061612

Key:
Test in all cases: Bliss excess, mean over the matrix (fraction); higher = more synergy
[1] = system: A375 (Melanoma)
Method in brief: (§1)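 Cell lines in DMEM/F12 or RPMI with 10% FBS were plated in 1536-well plates, held 24 hours at 37°C, 5% CO2, then given two-drug dose matrices for 72 hours (DMSO typically 0.2%). Viability was read by CellTiter-Glo 2.0 luminescence and scaled as inhibition from 0 (vehicle wells) to 1 (blank wells). Combination Emax is the second-highest inhibition in the matrix; Bliss excess is observed combination effect minus expected EA + EB − EA·EB, EA and EB being single-agent effects.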

[2] = system: BC-1 (B-Cell Non-Hodgkin's Lymphoma)
Method in brief: as §1

[3] = system: C2BBe1 (Colorectal Carcinoma)
Method in brief: as §1

[4] = system: COR-L105 (Lung Adenocarcinoma)
Method in brief: as §1

[5] = system: Daudi (Burkitt's Lymphoma)
Method in brief: as §1

[6] = system: GCIY (Gastric Carcinoma)
Method in brief: as §1

[7] = system: GRANTA-519 (B-Cell Non-Hodgkin's Lymphoma)
Method in brief: as §1

[8] = system: HT-144 (Melanoma)
Method in brief: as §1

[9] = system: HT-3 (Cervical Carcinoma)
Method in brief: as §1

[10] = system: KNS-62 (Squamous Cell Lung Carcinoma)
Method in brief: as §1

[11] = system: L-363 (Plasma Cell Myeloma)
Method in brief: as §1

[12] = system: MRK-nu-1 (Breast Carcinoma)
Method in brief: as §1

[13] = system: NCI-H1435 (Non-Small Cell Lung Carcinoma)
Method in brief: as §1

[14] = system: NCI-H1944 (Lung Adenocarcinoma)
Method in brief: as §1

[15] = system: NCI-H2009 (Lung Adenocarcinoma)
Method in brief: as §1

[16] = system: NCI-H2023 (Non-Small Cell Lung Carcinoma)
Method in brief: as §1

[17] = system: NCI-H835 (Other Solid Carcinomas)
Method in brief: as §1

[18] = system: RPMI-8402 (T-Lymphoblastic Leukemia)
Method in brief: as §1

[19] = system: SNU-1 (Gastric Carcinoma)
Method in brief: as §1

[20] = system: SW1463 (Colorectal Carcinoma)
Method in brief: as §1

| Compound | Bliss excess [1] | Bliss excess [2] | Bliss excess [3] | Bliss excess [4] | Bliss excess [5] | Bliss excess [6] | Bliss excess [7] | Bliss excess [8] | Bliss excess [9] | Bliss excess [10] | Bliss excess [11] | Bliss excess [12] | Bliss excess [13] | Bliss excess [14] | Bliss excess [15] | Bliss excess [16] | Bliss excess [17] | Bliss excess [18] | Bliss excess [19] | Bliss excess [20] |
| --- | --- | --- | --- | --- | --- | --- | --- | --- | --- | --- | --- | --- | --- | --- | --- | --- | --- | --- | --- | --- |
| COc1nnc2ccc(N3CCC(c4ccc(OCCN5CCN(C)C(=O)[C@H]5C)cc4)CC3)nn12 [AZD5153] + Cn1cnc2c(F)c(Nc3ccc(Br)cc3Cl)c(C(=O)NOCCO)cc21 [Selumetinib] (first compound max 1 µM, 7x7, partner max 10 µM) | 0.0241 | -0.036 | 0.0114 | 0.0622 | -0.059 | 0.0023 | -0.0143 | 0.0212 | 0.0276 | -0.0169 | 0.0188 | -0.0169 | 0.0113 | -0.0008 | -0.0123 | -0.0158 | -0.0256 | -0.0608 | 0.063 | 0.0243 |
| NC1(C(=O)N[C@@H](CCO)c2ccc(Cl)cc2)CCN(c2ncnc3[nH]ccc23)CC1 [Capivasertib] + CC(=O)c1c(C)c2cnc(Nc3ccc(N4CCNCC4)cn3)nc2n(C2CCCC2)c1=O [Palbociclib] (first compound max 10 µM, 7x7, partner max 10 µM) | 0.0051 | 0.0026 | -0.0094 | 0.0532 | 0.0065 | -0.0402 | -0.0273 | -0.0486 | -0.0182 | -0.0236 | -0.0413 | 0.001 | -0.0245 | 0.02 | -0.0054 | 0.0276 | -0.0562 | -0.0296 | 0.0634 | -0.0837 |
| NC1(C(=O)N[C@@H](CCO)c2ccc(Cl)cc2)CCN(c2ncnc3[nH]ccc23)CC1 [Capivasertib] + CC(C)n1c(=O)n(C)c2cnc3cc(F)c(-c4ccc(OCCCN5CCCCC5)nc4)cc3c21 [AZD1390] (first compound max 10 µM, 7x7, partner max 0.3 µM) | -0.0496 | -0.0175 | -0.0856 | -0.0635 | -0.0326 | -0.0841 | -0.0859 | -0.0688 | -0.035 | -0.0458 | -0.0749 | -0.0985 | -0.0336 | -0.0893 | -0.0648 | -0.0587 | -0.179 | -0.0456 | -0.079 | -0.0196 |
| NC1(C(=O)N[C@@H](CCO)c2ccc(Cl)cc2)CCN(c2ncnc3[nH]ccc23)CC1 [Capivasertib] + CCN(CCO)CCCOc1ccc2c(Nc3cc(CC(=O)Nc4cccc(F)c4)[nH]n3)ncnc2c1 [AZD2811] (first compound max 10 µM, 7x7, partner max 1 µM) | -0.0008 | -0.0383 | -0.0382 | -0.0523 | 0.103 | -0.0578 | 0.0258 | -0.0195 | -0.0327 | -0.0086 | -0.0235 | 0.0481 | -0.0384 | 0.101 | 0.0001 | -0.0087 | -0.103 | -0.0421 | 0.0214 | -0.0239 |
| NC1(C(=O)N[C@@H](CCO)c2ccc(Cl)cc2)CCN(c2ncnc3[nH]ccc23)CC1 [Capivasertib] + COc1nnc2ccc(N3CCC(c4ccc(OCCN5CCN(C)C(=O)[C@H]5C)cc4)CC3)nn12 [AZD5153] (first compound max 10 µM, 7x7, partner max 1 µM) | 0.009 | -0.0042 | -0.0365 | 0.0024 | 0.045 | -0.0265 | -0.0148 | 0.0653 | -0.0281 | 0.0035 | 0.108 | 0.0058 | -0.025 | -0.0124 | 0.0374 | 0.0221 | 0.0792 | -0.0484 | 0.0177 | -0.0021 |
| NC1(C(=O)N[C@@H](CCO)c2ccc(Cl)cc2)CCN(c2ncnc3[nH]ccc23)CC1 [Capivasertib] + C[C@@H]1COCCN1C2=NC(=NC(=C2)C3(CC3)[S@](=N)(=O)C)C4=C5C=CNC5=NC=C4 [AZD6738] (first compound max 10 µM, 7x7, partner max 10 µM) | -0.0239 | 0.0034 | -0.0722 | -0.034 | 0.0167 | -0.128 | -0.0136 | -0.0292 | -0.0091 | -0.0305 | -0.0201 | 0.0032 | 0.0077 | -0.0268 | -0.0483 | 0.0282 | -0.072 | -0.0768 | 0.0135 | -0.101 |
| NC1(C(=O)N[C@@H](CCO)c2ccc(Cl)cc2)CCN(c2ncnc3[nH]ccc23)CC1 [Capivasertib] + Cn1cnc2c(F)c(Nc3ccc(Br)cc3Cl)c(C(=O)NOCCO)cc21 [Selumetinib] (first compound max 10 µM, 7x7, partner max 10 µM) | 0.0344 | 0.0898 | -0.0036 | -0.0333 | -0.0138 | -0.0245 | -0.0205 | 0.0042 | -0.0176 | 0.119 | 0.0156 | 0.0218 | 0.0234 | 0.0543 | -0.0191 | -0.0583 | -0.027 | -0.037 | 0.0764 | -0.0255 |
| COc1cccc2c1C(=O)c1c(O)c3c(c(O)c1C2=O)C[C@@](O)(C(=O)CO)C[C@@H]3O[C@H]1C[C@H](N)[C@H](O)[C@H](C)O1 [Doxorubicin] + Cc1cc2ncnn2cc1Nc1ncc2c(n1)n(C1CCOCC1)c(=O)n2C [AZD7648] (first compound max 1 µM, 7x7, partner max 10 µM) | 0.09 | 0.094 | -0.0082 | 0.022 | 0.0985 | 0.0606 | 0.102 | 0.0302 | 0.127 | -0.0075 | 0.0622 | 0.0157 | 0.0002 | 0.0739 | 0.0653 | 0.0476 | 0.0207 | 0.0782 | 0.0667 | -0.0363 |
| CS(=O)(=O)CCNCc1ccc(-c2ccc3ncnc(Nc4ccc(OCc5cccc(F)c5)c(Cl)c4)c3c2)o1 [Lapatinib] + C[C@@H](Oc1cc(-c2cnn(C3CCNCC3)c2)cnc1N)c1c(Cl)ccc(F)c1Cl [Crizotinib] (first compound max 10 µM, 7x7, partner max 10 µM) | -0.0461 | -0.0557 | -0.018 | -0.004 | -0.0179 | -0.003 | 0.0192 | -0.0643 | -0.0357 | -0.0527 | -0.0208 | 0.0477 | 0.061 | 0.015 | -0.0506 | -0.026 | -0.117 | -0.0375 | 0.0039 | 0.0138 |
| CC(=O)c1c(C)c2cnc(Nc3ccc(N4CCNCC4)cn3)nc2n(C2CCCC2)c1=O [Palbociclib] + CC1(C)CCC(CN2CCN(c3ccc(C(=O)NS(=O)(=O)c4ccc(NCC5CCOCC5)c([N+](=O)[O-])c4)c(Oc4cnc5[nH]ccc5c4)c3)CC2)=C(c2ccc(Cl)cc2)C1 [Venetoclax] (first compound max 10 µM, 7x7, partner max 1 µM) | -0.0197 | -0.0747 | -0.0656 | -0.0399 | 0.0137 | -0.0391 | 0.0884 | -0.0356 | -0.0529 | -0.0152 | -0.0262 | -0.0262 | -0.0191 | 0.0257 | -0.0543 | -0.0067 | -0.143 | -0.0777 | 0.0006 | -0.0899 |
| CC(=O)c1c(C)c2cnc(Nc3ccc(N4CCNCC4)cn3)nc2n(C2CCCC2)c1=O [Palbociclib] + Cc1c2c(nn1C)CSCc1cc(n(C)n1)CSc1cc(c3ccccc3c1)OCCCc1c(C(=O)O)n(C)c3c-2c(Cl)ccc13 [AZD5991] (first compound max 10 µM, 7x7, partner max 1 µM) | -0.0057 | -0.0028 | -0.0782 | -0.0088 | 0.0059 | -0.0198 | 0.0039 | -0.0757 | -0.0751 | -0.0142 | -0.0147 | -0.0869 | -0.0308 | 0.0187 | -0.0567 | -0.0335 | -0.0004 | 0.0046 | -0.0691 | -0.0666 |
| CC(=O)c1c(C)c2cnc(Nc3ccc(N4CCNCC4)cn3)nc2n(C2CCCC2)c1=O [Palbociclib] + Cn1cnc2c(F)c(Nc3ccc(Br)cc3Cl)c(C(=O)NOCCO)cc21 [Selumetinib] (first compound max 10 µM, 7x7, partner max 10 µM) | 0.0027 | 0.0124 | -0.0273 | -0.0355 | -0.0641 | 0.0351 | -0.0386 | -0.0029 | -0.0279 | 0.038 | 0.0127 | 0.0259 | -0.0105 | -0.0022 | -0.0264 | -0.0313 | -0.0551 | -0.0374 | 0.067 | 0.0128 |
| COc1cccc(OCCCN)c1-c1cc(Nc2cnc(C#N)cn2)n[nH]1 [Prexasertib] + C=CCn1c(=O)c2cnc(Nc3ccc(N4CCN(C)CC4)cc3)nc2n1-c1cccc(C(C)(C)O)n1 [AZD1775] (first compound max 1 µM, partner max 1 µM) | 0.0888 | 0.0168 | 0.0545 | 0.0157 | 0.0677 | 0.0355 | -0.0138 | 0.0666 | 0.159 | 0.0697 | 0.0204 | 0.211 | 0.0718 | 0.077 | 0.0914 | 0.0205 | 0.105 | 0.0389 | 0.084 | 0.0656 |
